From US8993574B2, “Pyrrole antifungal agents” (F2G Ltd, priority 2008, dated 2015)
≈ marks a conversion by molar mass, not a printed value.

How the values were obtained:
Format in all cases: cell-based
[1] = system: Aspergillus fumigatus AF210; test: MIC, RPMI medium; settings: for MIC: Aspergillus fumigatus, AF210, MIC banded into grades, read-out: MIC grade, A. fumigatus 210
Experimental: (§1) Between 1 and 5 mgs of compound were accurately weighed out into a sterile Eppendorf tube. The compound was dissolved in DMSO to give a solution containing 5 mg/mL. Tubes were stored at −20° C. until required.
(§2) On the day of testing thawed solutions were vortex mixed to ensure homogeneity. 30 μL of solution was removed and added to 570 μL of sterile water in a separate sterile Eppendorf. The thoroughly mixed solution was used to prepare a series of doubling dilutions in water, in a deep well plate. Thirteen replicate plates were prepared using a Minitrak by aspirating 20 μL from each well into eleven clear polystyrene 96 well plates.
(§3) Assays were also performed in RPMI medium for both Aspergillus spp. (strains described above) and Candida spp. (Candida albicans, Candida glabrata, Candida krusei, Candida parapsilosis and Candida tropicalis). To perform MIC tests in this medium, dilutions of compounds are prepared in microtitre plates as described above. Fungal strains to be tested are grown and harvested in an identical manner to that described above, and each organism suspension was diluted in RPMI medium, containing 2% glucose and 0.135 M MOPS buffer (pH 7.0) to 0.5-2×10^4 cfu/mL, rather than in YAG medium. 80 μL of an organism suspension was added to each well of the plate containing drug dilutions.
(§4) This produced MIC plates with a drug range 50-0.05 mg/L and organism inocula of 1−2×10^4 cfu/mL. All plates were incubated for 24-48 h at 35° C. Growth was assessed by monitoring the optical density at 485 nm for each well. The MIC of a compound is the lowest drug concentration that inhibits growth of an organism by >80% compared with a drug free control.
(§5) The following organisms were tested: Aspergillus flavus, Aspergillus fumigatus AF293 and AF210, Aspergillus niger, Aspergillus terreus AT4 and AT49, Candida albicans, Candida glabrata, Candida krusei, Candida parapsilosis and Candida tropicalis.

[2] = system: Aspergillus niger; test: MIC, RPMI medium; settings: MIC banded into grades; for MIC: Aspergillus niger, read-out: MIC grade, A. niger
Experimental: as §1, §2, §3, §4, §5

[3] = system: Aspergillus fumigatus AF293; test: MIC, RPMI medium; settings: for MIC: Aspergillus fumigatus, AF293, MIC banded into grades, read-out: MIC grade, A. fumigatus
Experimental: as §1, §2, §3, §4, §5

[4] = system: Aspergillus terreus AT49; test: MIC, RPMI medium; settings: for MIC: Aspergillus terreus, AT49, MIC banded into grades, read-out: MIC grade, A. terreus 49
Experimental: as §1, §2, §3, §4, §5

[5] = system: Aspergillus flavus; test: MIC, RPMI medium; settings: MIC banded into grades; for MIC: Aspergillus flavus, read-out: MIC grade, A. flavus
Experimental: as §1, §2, §3, §4, §5

[6] = system: Aspergillus terreus AT4; test: MIC, RPMI medium; settings: for MIC: Aspergillus terreus, AT4, MIC banded into grades, read-out: MIC grade, A. terreus
Experimental: as §1, §2, §3, §4, §5

[7] = system: Aspergillus fumigatus AF210; test: MIC, YAG medium; settings: 24 h at 35° C, MIC banded into grades; for MIC: Aspergillus fumigatus, read-out: MIC grade, A. fumigatus 210
Experimental: as §1, §2
(§6) Spores of Aspergillus spp. (Aspergillus fumigatus [two strains], Aspergillus terreus [two strains], Aspergillus niger and Aspergillus flavus) were harvested from cultures grown on Sabarauds agar for 5 days, and resuspended in PBS/Tween 80 to approx 1×10^7 cfu/mL. Each organism suspension was diluted in YAG medium (1% glucose, 1% ammonium chloride and 0.5% yeast extract) to 0.5−2×10^4 cfu/mL. 80 μL of an organism suspension was added to each well of the plate containing drug dilutions.
as §4, with “cfu/mL for Aspergillus spp.” for “cfu/mL.”, “24” for “24-48”, “>70%” for “>80%”, “control. MICs are recorded as mg/L. In cases where the MIC of an organism is […] mg/L the MIC is repeated using a concentration range of 0.5-0.0005 mg/L.” for “control.”
as §5

[8] = system: Aspergillus niger; test: MIC, YAG medium; settings: 24 h at 35° C, MIC banded into grades; for MIC: Aspergillus niger, read-out: MIC grade, A. niger
Experimental: as §1, §2, §6
as §4, with “cfu/mL for Aspergillus spp.” for “cfu/mL.”, “24” for “24-48”, “>70%” for “>80%”, “control. MICs are recorded as mg/L. In cases where the MIC of an organism is […] mg/L the MIC is repeated using a concentration range of 0.5-0.0005 mg/L.” for “control.”
as §5

[9] = system: Aspergillus fumigatus AF293; test: MIC, YAG medium; settings: 24 h at 35° C, MIC banded into grades; for MIC: Aspergillus fumigatus, read-out: MIC grade, A. fumigatus
Experimental: as §1, §2, §6
as §4, with “cfu/mL for Aspergillus spp.” for “cfu/mL.”, “24” for “24-48”, “>70%” for “>80%”, “control. MICs are recorded as mg/L. In cases where the MIC of an organism is […] mg/L the MIC is repeated using a concentration range of 0.5-0.0005 mg/L.” for “control.”
as §5

[10] = system: Aspergillus terreus AT49; test: MIC, YAG medium; settings: 24 h at 35° C, MIC banded into grades; for MIC: Aspergillus terreus, read-out: MIC grade, A. terreus 49
Experimental: as §1, §2, §6
as §4, with “cfu/mL for Aspergillus spp.” for “cfu/mL.”, “24” for “24-48”, “>70%” for “>80%”, “control. MICs are recorded as mg/L. In cases where the MIC of an organism is […] mg/L the MIC is repeated using a concentration range of 0.5-0.0005 mg/L.” for “control.”
as §5

[11] = system: Aspergillus flavus; test: MIC, YAG medium; settings: 24 h at 35° C, MIC banded into grades; for MIC: Aspergillus flavus, 24 h, read-out: MIC grade, A. flavus
Experimental: as §1, §2, §6
as §4, with “cfu/mL for Aspergillus spp.” for “cfu/mL.”, “24” for “24-48”, “>70%” for “>80%”, “control. MICs are recorded as mg/L. In cases where the MIC of an organism is […] mg/L the MIC is repeated using a concentration range of 0.5-0.0005 mg/L.” for “control.”
as §5

[12] = system: Aspergillus terreus AT4; test: MIC, YAG medium; settings: 24 h at 35° C, MIC banded into grades; for MIC: Aspergillus terreus, read-out: MIC grade, A. terreus
Experimental: as §1, §2, §6
as §4, with “cfu/mL for Aspergillus spp.” for “cfu/mL.”, “24” for “24-48”, “>70%” for “>80%”, “control. MICs are recorded as mg/L. In cases where the MIC of an organism is […] mg/L the MIC is repeated using a concentration range of 0.5-0.0005 mg/L.” for “control.”
as §5

| MIC [1] | MIC [2] | MIC [3] | MIC [4] | MIC [5] | MIC [6] | MIC [7] | MIC [8] | MIC [9] | MIC [10] | MIC [11] | MIC [12] | SMILES | other results |
| --- | --- | --- | --- | --- | --- | --- | --- | --- | --- | --- | --- | --- | --- |
| 1 to 10 µg/mL (≈ 1.76 to 17.6 µM) | 1 to 10 µg/mL (≈ 1.76 to 17.6 µM) | < 1 µg/mL | 1 to 10 µg/mL (≈ 1.76 to 17.6 µM) | > 10 µg/mL | 1 to 10 µg/mL (≈ 1.76 to 17.6 µM) | < 1 µg/mL | 1 to 10 µg/mL (≈ 1.76 to 17.6 µM) | < 1 µg/mL | < 1 µg/mL | 1 to 10 µg/mL (≈ 1.76 to 17.6 µM) | < 1 µg/mL | COCCn1c(C)c(F)c(-c2ccccc2)c1C(=O)C(=O)Nc1ccc(N2CCN(c3cc(C)cc(C)n3)CC2)cc1 [Example 94, N-{4-[4-(4,6-Dimethyl-pyridin-2-yl)-piperazin-1-yl]-phenyl}-2-[4-fluoro-1-(2-methoxy-ethyl)-5-methyl-3-phenyl-1H-pyrrol-2-yl]-2-oxo-acetamide] |  |
| < 1 µg/mL | < 1 µg/mL | < 1 µg/mL | < 1 µg/mL | < 1 µg/mL | < 1 µg/mL | < 1 µg/mL | < 1 µg/mL | < 1 µg/mL | < 1 µg/mL | < 1 µg/mL | < 1 µg/mL | Cc1cc(-c2ccccc2)c(C(=O)C(=O)Nc2ccc(N3CCOCC3)cc2F)n1C [Example 101, 2-(1,5-Dimethyl-3-phenyl-1H-pyrrol-2-yl)-N-(2-fluoro-4-morpholin-4-yl-phenyl)-2-oxo-acetamide] |  |
|  |  |  |  |  |  |  |  |  |  |  |  | Cc1cc(C)nc(N2CCN(c3ccc(NC(=O)C(=O)c4cc(-c5ccccc5)c5n4CCCCC5)cc3)CC2)c1 [41 b] | MIC grade, A. fumigatus 210 ([1]; MIC banded into grades): 1 (a grade of 1 represents an MIC of greater than 10 mg/L); MIC grade, A. niger [2]: 1 (a grade of 1 represents an MIC of greater than 10 mg/L); MIC grade, A. fumigatus ([3]; MIC banded into grades): 2 (A grade of 2 represents an MIC of from 1 to 10 mg/L); MIC grade, A. terreus 49 ([4]; MIC banded into grades): 1 (a grade of 1 represents an MIC of greater than 10 mg/L); MIC grade, A. flavus [5]: 1 (a grade of 1 represents an MIC of greater than 10 mg/L); MIC grade, A. terreus ([6]; MIC banded into grades): 1 (a grade of 1 represents an MIC of greater than 10 mg/L); MIC grade, A. fumigatus 210 [7]: 2 (A grade of 2 represents an MIC of from 1 to 10 mg/L); MIC grade, A. niger [8]: 1 (a grade of 1 represents an MIC of greater than 10 mg/L); MIC grade, A. fumigatus [9]: 2 (A grade of 2 represents an MIC of from 1 to 10 mg/L); MIC grade, A. terreus 49 [10]: 1 (a grade of 1 represents an MIC of greater than 10 mg/L); MIC grade, A. flavus [11]: 1 (a grade of 1 represents an MIC of greater than 10 mg/L); MIC grade, A. terreus [12]: 1 (a grade of 1 represents an MIC of greater than 10 mg/L) |
| > 10 µg/mL | > 10 µg/mL | > 10 µg/mL | > 10 µg/mL | > 10 µg/mL | > 10 µg/mL | 1 to 10 µg/mL (≈ 2.09 to 20.9 µM) | > 10 µg/mL | 1 to 10 µg/mL (≈ 2.09 to 20.9 µM) | < 1 µg/mL | < 1 µg/mL | < 1 µg/mL | Cc1cc(C)nc(N2CCN(c3ccc(NC(=O)C(=O)c4cccn4-c4ccccc4)cc3)CC2)c1 [Example 2, N-{4-[4-(4,6-Dimethyl-pyridin-2-yl)-piperazin-1-yl]-phenyl}-2-oxo-2-(1-phenyl-1H-pyrrol-2-yl)-acetamide] |  |
